Results from patent publication US20170107212A1, “NOVEL COMPOUNDS” (Bayer Pharma Aktiengesellschaft, priority 2014, published 2017).
pIC50: −log10 of the molar value.

Legend:
[1] = tested on: constitutive active colorectal cancer cell (CRC) Wnt pathway, HCT116 TOPFlash; assay: Cellular reporter assay, HCT116 Super TopFlash (constitutive active Wnt pathway), luciferase expression; format: cell-based; conditions: HCT116 Super TopFlash reporter cells, 36 hours incubation, dilution series 50 μM to 15 nM
Description: In order to discover and characterize small molecules which inhibit the constitutive active colorectal cancer cell (CRC) Wnt pathway, a cellular reporter assay was employed. The corresponding assay cell was generated by transfection of the colorectal cancer cell line HCT116 (ATCC, #CCL-247) with the Super TopFlash vector (Morin, Science 275, 1997, 1787-1790; Molenaar et al., Cell 86 (3), 1996, 391-399). The HCT116 cell line is cultivated at 37° C. and 5% CO2 in DMEM/F-12 (Life Technologies, #11320-074), supplemented with 2 mM glutamine, 20 mM HEPES, 1.4 mM pyruvate, 0.15% Na-bicarbonate and 10% foetal bovine serum (GIBCO, #10270), this cancer cell line is pathophysiological relevant since it carries a deletion of position S45 in the β-catenin gene, leading to constitutive active Wnt signaling. Stable transfectants were generated by cotransfection with pcDNA3 and selection of stable transfected cells with 1 mg/ml G418.
(§1) In preparation of the assay, the two cell lines were plated 24 hours before at 10000 cells per well of a 384 micro titre plate (MTP) in 30 μL growth medium. Selective inhibitory activity for small molecules on the mutated Wnt pathway was determined after parallel incubation of both (TOP and FOP) HCT116 reporter cell lines with a compound dilution series from 50 μM to 15 nM in steps of 3.16-fold dilutions in CAFTY buffer (130 mM NaCl, 5 mM KCl, 20 mM HEPES, 1 mM MgCl2, 5 mM NaHCO3, pH 7.4) containing 2 mM Ca^2+ and 0.01% BSA. The compounds were thereby serially prediluted in 100% DMSO and thereafter in addition 50 fold into the CAFTY compound dilution buffer (described above). From this dilution 10 μL were added to the cells in 30 μL growth medium and incubated for 36 hours at 37° C. and 5% CO2. Thereafter luciferase assay buffer (1:1 mixture of luciferase substrate buffer (20 mM Tricine, 2.67 mM MgSO4, 0.1 mM EDTA, 4 mM DTT, 270 μM Coenzyme A, 470 μM Luciferin, 530 μM ATP, ph adjusted to pH 7.8 with a sufficient volume of 5M NaOH) and Triton buffer (30 mL Triton X-100, 115 mL glycerol, 308 mg Dithiothreitol, 4.45 g Na2HPO4.2H2O, 3.03 g TRIS HCl, ad 1 l H20, pH 7.8) was added as equal volume to the compound solution on the cells to determine luciferase expression as a measure of Wnt signaling activity in a luminometer.

HCT116 FOPFlash = assay: Control reporter assay, HCT116 FOP control vector (non-functional TCF elements), luciferase expression; format: cell-based; conditions: HCT116 FOP control reporter cells, 36 hours incubation, dilution series 50 μM to 15 nM
Description: In a parallel approach, HCT116 cells were cotransfected with the FOP control vector and pcDNA3. The FOP vector is identical to the TOP construct, but it contains instead of functional TCF elements a randomized, non-functional sequence. For this transfection a stable transfected cell line was generated as well.
as §1

| pIC50 ([1]; Homo sapiens, HCT-116, 36 h) | pIC50 (HCT116 FOPFlash; Homo sapiens, HCT-116, 36 h) | pIC50 [1] | pIC50 (HCT116 FOPFlash) | SMILES |
| --- | --- | --- | --- | --- |
| 7.74 | ≤ 4.30 |  |  | CN1CCN(CC(=O)Nc2cc(C(=O)Nc3ccc(-c4cncnc4)cn3)ccc2OC(F)(F)F)CC1 [Example 46, 3-{[(4-methylpiperazin-1-yl)acetyl]amino}-N-[5-(pyrimidin-5-yl)pyridin-2-yl]-4-(trifluoromethoxy)benzamide] |
| 6.56 | ≤ 4.30 |  |  | O=C(CN1CCOCC1)Nc1cc(C(=O)Nc2nnc(-c3cccnc3)s2)ccc1OC1CC1 [Example 35, 4-(cyclopropyloxy)-3-[(morpholin-4-ylacetyl)amino]-N-[5-(pyridin-3-yl)-1,3,4-thiadiazol-2-yl]benzamide] |
| 7.27 | ≤ 4.30 |  |  | CC(C(=O)Nc1cc(C(=O)Nc2ccc(-c3ccc(F)nc3)nc2)ccc1OC(F)(F)F)N1CCOCC1 (stereo not drawn) [Example 23, N-(6′-fluoro-2,3′-bipyridin-5-yl)-3-{[2-(morpholin-4-yl)propanoyl]amino}-4-(trifluoromethoxy)benzamide] |
| ≤ 4.30 | ≤ 4.30 |  |  | O=C(CN1CCOCC1)Nc1cc(C(=O)Nc2nnc(-c3cnccn3)s2)ccc1OC(F)(F)F [Example 88, 3-[(morpholin-4-ylacetyl)amino]-N-[5-(pyrazin-2-yl)-1,3,4-thiadiazol-2-yl]-4-(trifluoromethoxy)benzamide] |
| 5.43 | ≤ 4.30 |  |  | COCCCOc1ccc(C(=O)Nc2nnc(-c3cnccc3C)s2)cc1NC(=O)CN1CCOCC1 [Example 74, 4-(3-methoxypropoxy)-N-[5-(4-methylpyridin-3-yl)-1,3,4-thiadiazol-2-yl)-3-[(morpholin-4-ylacetyl)amino]benzamide] |
| 5.33 | ≤ 4.30 |  |  | Cc1ccncc1-c1nnc(NC(=O)c2ccc(OC(F)(F)F)c(NC(=O)CN3CCOCC3)c2)s1 [Example 71, N-[5-(4-methylpyridin-3-yl)-1,3,4-thiadiazol-2-yl]-3-[(morpholin-4-ylacetyl)amino]-4-(trifluoromethoxy)benzamide] |
| ≤ 4.30 | ≤ 4.30 |  |  | O=C(CN1CCOCC1)Nc1cc(C(=O)Nc2nnc(-c3cnccc3F)s2)ccc1OC(F)(F)F [Example 107, N-[5-(4-fluoropyridin-3-yl)-1,3,4-thiadiazol-2-yl]-3-[(morpholin-4-ylacetyl)amino]-4-(trifluoromethoxy)benzamide] |
| 6.71 | ≤ 4.30 |  |  | Nc1ncc(-c2nnc(NC(=O)c3ccc(OC(F)(F)F)c(NC(=O)C4(N5CCOCC5)CC4)c3)s2)cn1 [Example 33, N-[5-(2-aminopyrimidin-5-yl)-1,3,4-thiadiazol-2-yl]-3-({[1-(morpholin-4-yl)cyclopropyl]carbonyl}amino)-4-(trifluoromethoxy)benzamide] |
| 5.73 | ≤ 4.30 |  |  | CN1CCN(CC(=O)Nc2cc(C(=O)Nc3nnc(-c4cncs4)s3)ccc2OC(F)(F)F)CC1 [Example 68, 3-{[(4-methylpiperazin-1-yl)acetyl]amino}-N-[5-(1,3-thiazol-5-yl)-1,3,4-thiadiazol-2-yl]-4-(trifluoromethoxy)benzamide] |
| 6.62 | ≤ 4.30 |  |  | Cc1ccncc1-c1nnc(NC(=O)c2cc(NC(=O)CN3CCN(C)CC3)c(OC(F)(F)F)cc2F)s1 [Example 78, 2-fluoro-5-{[(4-methylpiperazin-1-yl)acetyl]amino}-N-[5-(4-methylpyridin-3-yl)-1,3,4-thiadiazol-2-yl]-4-(trifluoromethoxy)benzamide] |
| 6.07 | ≤ 4.30 |  |  | Cc1cccnc1-c1nnc(NC(=O)c2ccc(OC(F)(F)F)c(NC(=O)CN3CCOCC3)c2)s1 [Example 89, N-[5-(3-methylpyridin-2-yl)-1,3,4-thiadiazol-2-yl]-3-[(morpholin-4-ylacetyl)amino]-4-(trifluoromethoxy)benzamide] |
| 7.10 | ≤ 4.30 |  |  | CN1CCN(CC(=O)Nc2cc(C(=O)Nc3cnc(-c4cccnc4F)cn3)ccc2OC(F)(F)F)CC1 [Example 51] |
| 5.29 | ≤ 4.30 |  |  | CN1CCN(CC(=O)Nc2cc(C(=O)Nc3nnc(-c4cnccc4C(F)(F)F)s3)ccc2OC(F)(F)F)CC1 [Example 70, 3-{[(4-methylpiperazin-1-yl)acetyl]amino}-4-(trifluoromethoxy)-N-{5-[4-(trifluoromethyl)pyridin-3-yl)-1,3,4-thiadiazol-2-yl}benzamide] |
| 6.42 | 4.85 |  |  | CN1CCN(CC(=O)Nc2cc(C(=O)Nc3nnc(-c4cccnc4)s3)ccc2OC2CC2)CC1 [Example 34, 4-(cyclopropyloxy)-3-{[(4-methylpiperazin-1-yl)acetyl]amino}-N-[5-(pyridin-3-yl)-1,3,4-thiadiazol-2-yl]benzamide] |
| 5.13 | 4.56 |  |  | O=C(CN1CCOCC1)Nc1cc(C(=O)Nc2nnc(-c3cncc(C(F)(F)F)c3)s2)ccc1OC(F)(F)F [Example 58, 3-[(morpholin-4-ylacetyl)amino]-4-(trifluoromethoxy)-N-{5-[5-(trifluoromethyl)pyridin-3-yl]-1,3,4-thiadiazol-2-yl}benzamide] |
| 4.45 | ≤ 4.30 |  |  | Cc1nccnc1-c1nnc(NC(=O)c2ccc(OC(F)(F)F)c(NC(=O)CN3CCOCC3)c2)s1 [Example 91, N-[5-(3-methylpyrazin-2-yl)-1,3,4-thiadiazol-2-yl]-3-[(morpholin-4-ylacetyl)amino]-4-(trifluoromethoxy)benzamide] |
| 7.24 | ≤ 4.30 |  |  | CN1CCN(CC(=O)Nc2cc(C(=O)Nc3ccc(-c4ccc(N)nc4)cn3)ccc2OC(F)(F)F)CC1 [Example 10, N-(6′-amino-3,3′-bipyridin-6-yl)-3-{[(4-methylpiperazin-1-yl)acetyl]amino}-4-(trifluoromethoxy)benzamide] |
| ≤ 4.30 | ≤ 4.30 |  |  | O=C(CN1CCOCC1)Nc1cc(C(=O)Nc2ccc(-c3cccnc3)cn2)ccc1OC1CC1 [Example 118, N-(3,3′-bipyridin-6-yl)-4-(cyclopropyloxy)-3-[(morpholin-4-ylacetyl)amino]benzamide] |
| 4.58 | ≤ 4.30 |  |  | CN1CCN(CC(=O)Nc2cc(C(=O)Nc3nnc(-c4ccncc4)s3)ccc2OC(F)(F)F)CC1 [Example 83, 3-{[(4-methylpiperazin-1-yl)acetyl]amino}-N-[5-(pyridin-4-yl)-1,3,4-thiadiazol-2-yl]-4-(trifluoromethoxy)benzamide] |
|  |  | 6.21 | ≤ 4.30 | Cc1ccncc1-c1nnc(NC(=O)c2ccc(OC(F)(F)F)c(NC(=O)CN3CCN(C)CC3)c2)s1 [Example 37, 3-{[(4-methylpiperazin-1-yl)acetyl]amino}-N-[5-(4-methylpyridin-3-yl)-1,3,4-thiadiazol-2-yl]-4-(trifluoromethoxy)benzamide] |
| ≤ 4.30 | ≤ 4.30 |  |  | O=C(CN1CCOCC1)Nc1cc(C(=O)Nc2nnc(-c3ccncc3)s2)ccc1OC1CC1 [Example 116, 4-(cyclopropyloxy)-3-[(morpholin-4-ylacetyl)amino]-N-[5-(pyridin-4-yl)-1,3,4-thiadiazol-2-yl]benzamide] |
| 6.01 | ≤ 4.30 |  |  | CN1CCN(CC(=O)Nc2cc(C(=O)Nc3nnc(-c4cnc(N)nc4)s3)ccc2OC(F)(F)F)CC1 [Example 31, N-[5-(2-aminopyrimidin-5-yl)-1,3,4-thiadiazol-2-yl]-3-{[(4-methylpiperazin-1-yl)acetyl]amino}-4-(trifluoromethoxy)benzamide] |
| 7.38 | ≤ 4.30 |  |  | CN1CCN(CC(=O)Nc2cc(C(=O)Nc3ccc(-c4cccnc4F)cn3)ccc2OC(F)(F)F)CC1 [Example 13, N-(2′-fluoro-3,3′-bipyridin-6-yl)-3-{[(4-methylpiperazin-1-yl)acetyl]amino}-4-(trifluoromethoxy)benzamide] |
| 6.37 | ≤ 4.30 |  |  | Cc1nc(-c2nnc(NC(=O)c3ccc(OC(F)(F)F)c(NC(=O)CN4CCN(C)CC4)c3)s2)cs1 [Example 44, 3-{[(4-methylpiperazin-1-yl)acetyl]amino}-N-[5-(2-methyl-1,3-thiazol-4-yl)-1,3,4-thiadiazol-2-yl]-4-(trifluoromethoxy)benzamide] |
